# Ends that are not written are not given here.
# How the values were obtained:
# rClfA229-545 = target: T1, rClfA229-545 (Staphylococcus aureus, UniProt Q53653); experiment: Isothermal titration calorimetry of Fg γ-peptide binding to rClfA229-545
# T1 construct: 6xHis; made in house; host or cells: E. coli
# T1 sequence (Q53653 229-545): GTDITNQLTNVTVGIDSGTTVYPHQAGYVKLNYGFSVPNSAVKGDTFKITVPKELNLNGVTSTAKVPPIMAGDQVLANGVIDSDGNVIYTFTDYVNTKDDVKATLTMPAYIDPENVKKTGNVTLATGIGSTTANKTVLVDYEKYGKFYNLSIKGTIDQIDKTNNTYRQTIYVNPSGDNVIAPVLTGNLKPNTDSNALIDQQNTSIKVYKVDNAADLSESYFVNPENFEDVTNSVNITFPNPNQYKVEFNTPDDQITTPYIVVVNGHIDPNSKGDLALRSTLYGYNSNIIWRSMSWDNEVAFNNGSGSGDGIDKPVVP
# Description: Peptide 0.6-0.9 mM was injected into a cell with rClfA229-545 in a VP-ITC (MicroCal Inc.). The resulting data was analyzed using Origin 5.0 from MicroCal using a single binding site model.
# ClfA229-545 = ClfA229-545 (Staphylococcus aureus, UniProt Q53653); conditions: 1 μg Fg/well, varying concentrations of ClfA229-545, read at 405 nm (FIG. 6)
# Description: About 3 mg lyophilized salmon Fg (batch “A”) was dissolved into 3 mg/ml in PBS. Human and salmon Fg was coated onto 4HBX microtiter plates (1 μg/well) at 4° C. over-night in Dulbecco's PBS without MgCl2 nor CaCl2 ions). The plate was blocked for 1 hour room temperature (RT) using 5% bovine serum albumin (BSA) in TBS-T. Recombinant His-tagged ClfA229-545 was added in varying concentrations to test for binding to Fg using TBS solution for 1 hour at room temperature. Bound ClfA was detected with anti-ClfA rabbit antibodies (dil 1:2000) in TBS-T with 1% BSA followed by goat anti-rabbit secondary antibodies (dil 1:2000) conjugated to alkaline phosphatase using the same buffer. Color detection was read after 30-60 min at 405 nm in a microtiter plate reader using phospatase substrate from Sigma dissolved in 1M DEA. No background subtraction, data points are triplicates except for no ClfA where six data points were used. Human or salmon Fg was coated over-night and after blocking varying concentrations of ClfA was added to Fg.
# S. aureus USA300 NARSA = experiment: Adherence of S. aureus USA300 NARSA to Fg coated microtiter plates (crystal violet, OD 590 nm); format: cell-based; conditions: 1 μg Fg/well, MRSA strain grown over-night in tryptic soy broth (FIG. 7)
# Description: Microtiter plates were coated with 1 μg human or salmon Fg per well over-night at 4° C., followed by blocking with 5% bovine serum albumin in TBS-T (Tris-buffered saline with 0.05% Tween-20) in room temperature for about 1 hour. Two bacterial colonies (designated by 1 or 2 in FIG. 7) of S. aureus USA300 NARSA (an MRSA strain) were inoculated in tryptic soy broth at 37° C. over-night, washed and resuspended in PBS and various bacterial dilutions were incubated in the wells for 1 hour at room temperature. After washing in PBS, bound bacteria was fixed using 25% formaldehyde followed by 0.5% crystal violet stain. After PBS washing, 10% acetic acid was added and bound color was measured by crystal violet staining and optical density read at 590 nm in a microtiter plate reader.
Substance,Kd (rClfA229-545) [µM],"binding to ClfA229-545 (rClfA229-545; ITC, in solution (FIGS. 3A and 3B))",binding of ClfA N2N3 to coated Fg (ClfA229-545),binding (adherence) of S. aureus USA300 to coated Fg (S. aureus USA300 NARSA)
GEGQQHHLGGAKQAGDV [human 17-mer peptide],23,,,
GQQHHLGGAKQAGDV [human 15-mer peptide],40,binds to ClfA,,
human Fg: human fibrinogen,,,dose-dependent binding,bound
